{"source": "paper PMC10066365", "about": "“Nemacol is a small molecule inhibitor of C. elegans vesicular acetylcholine transporter with anthelmintic potential” (Nature Communications, 2023)", "key": {"C. elegans": {"tested_on": "C. elegans", "assay": "C. elegans 3-day liquid viability assay, Nemacol-1 x Ivermectin matrix, wild type", "settings": "for development average norm L4/As / viability Avg / average progress to L4 (development) / average viability (relative to control): N2; for average progress to L4 (development) / average viability (relative to control): Nemacol-1-1 0; for nemacol-1 x ivermectin matrix dose-response raw data: wt (N2) + 0 uM nemacol, 3 replicate columns"}, "C. elegans unc-17(e245)": {"tested_on": "C. elegans unc-17(e245)", "settings": "for development average norm L4/As / viability Avg: CB245 unc-17(e245); for nemacol-1 x ivermectin matrix dose-response raw data: unc-17(e245) + 0 uM nemacol, 3 replicate columns"}, "Haemonchus contortus": {"tested_on": "Haemonchus contortus", "assay": "Haemonchus contortus L3 Migration Trap Assay (motility, 24 h exposure)", "settings": "hc weybridge, 24 h; for raw: raw motility readout"}, "C. elegans DA1316": {"tested_on": "C. elegans DA1316", "assay": "C. elegans 3-day liquid viability assay, DA1316 avr-14; avr-15; […]", "type": "in vivo, Caenorhabditis elegans", "settings": "DA1316, nemacol-1 0"}, "[1]": {"settings": "ivermectin 0.00046875 uM (Fig. 5AC sheet)"}, "[2]": {"settings": "ivermectin 0.0009375 uM (Fig. 5AC sheet)"}, "[3]": {"settings": "ivermectin 0.001875 uM (Fig. 5AC sheet)"}, "[4]": {"settings": "ivermectin 0.00375 uM (Fig. 5AC sheet)"}, "[5]": {"settings": "ivermectin 0.03 uM (Fig. 5AC sheet)"}, "[6]": {"settings": "ivermectin 0.06 uM (Fig. 5AC sheet)"}, "[7]": {"settings": "ivermectin 0.001875 uM (row head 1.875)"}, "[8]": {"settings": "ivermectin 0.00375 uM (row head 3.75)"}, "[9]": {"settings": "ivermectin 0.06 uM (row head 60)"}, "[10]": {"settings": "ivermectin 0.0195312 µM + Nemacol_53 26.4 µM"}, "[11]": {"settings": "ivermectin 0.0195312 µM + Nemacol_53 16.8 (unit not given)"}, "[12]": {"settings": "ivermectin 0.078125 µM + Nemacol_53 26.4 µM"}, "[13]": {"settings": "ivermectin 0.078125 µM + Nemacol_53 16.8 (unit not given)"}, "[14]": {"settings": "ivermectin 5 µM + Nemacol_53 16.8 (unit not given)"}}, "note": "Values joined by “and” are separate entries in the source; they are usually repeats but may differ in a detail not shown here. Identical values can stand only once. Like-named read-outs stand apart in the source and are kept apart here.", "data": [{"smiles": "CC[C@H](C)[C@H]1O[C@]2(CC[C@@H]1C)C[C@@H]1C[C@@H](C/C=C(\\C)[C@@H](O[C@H]3C[C@H](OC)[C@@H](O[C@H]4C[C@H](OC)[C@@H](O)[C@H](C)O4)[C@H](C)O3)[C@@H](C)/C=C/C=C3\\CO[C@@H]4[C@H](O)C(C)=C[C@@H](C(=O)O1)[C@]34O)O2", "note": "[ivermectin]", "values": [{"measurement": "development average norm L4/As", "setting": "C. elegans; [1]", "result": 99.0}, {"measurement": "viability Avg", "setting": "C. elegans; [1]", "result": 0.99}, {"measurement": "development average norm L4/As", "setting": "C. elegans; [2]", "result": 105.0}, {"measurement": "viability Avg", "setting": "C. elegans; [2]", "result": 1.05}, {"measurement": "average progress to L4 (development)", "setting": "C. elegans; ivermectin 0.0009375 uM", "result": 107.265}, {"measurement": "average viability (relative to control)", "setting": "C. elegans; ivermectin 0.0009375 uM", "result": 1.077}, {"measurement": "development average norm L4/As", "setting": "C. elegans; [3]", "result": 102.7}, {"measurement": "viability Avg", "setting": "C. elegans; [3]", "result": 1.03}, {"measurement": "average progress to L4 (development)", "setting": "C. elegans; ivermectin 0.001875 uM", "result": 88.2297}, {"measurement": "average viability (relative to control)", "setting": "C. elegans; ivermectin 0.001875 uM", "result": 0.8852}, {"measurement": "development average norm L4/As", "setting": "C. elegans; [4]", "result": 101.8}, {"measurement": "viability Avg", "setting": "C. elegans; [4]", "result": 1.03}, {"measurement": "average progress to L4 (development)", "setting": "C. elegans; ivermectin 0.00375 uM", "result": 85.4056}, {"measurement": "average viability (relative to control)", "setting": "C. elegans; ivermectin 0.00375 uM", "result": 0.8507}, {"measurement": "development average norm L4/As", "setting": "C. elegans; [5]", "result": 33.1}, {"measurement": "viability Avg", "setting": "C. elegans; [5]", "result": 0.89}, {"measurement": "average progress to L4 (development)", "setting": "C. elegans; ivermectin 0.03 uM", "result": 25.8319}, {"measurement": "average viability (relative to control)", "setting": "C. elegans; ivermectin 0.03 uM", "result": 0.6373}, {"measurement": "development average norm L4/As", "setting": "C. elegans; [6]", "result": 0.0}, {"measurement": "viability Avg", "setting": "C. elegans; [6]", "result": 0.11}, {"measurement": "average progress to L4 (development)", "setting": "C. elegans; ivermectin 0.06 uM", "result": 0}, {"measurement": "average viability (relative to control)", "setting": "C. elegans; ivermectin 0.06 uM", "result": 0.09164}, {"measurement": "nemacol-1 x ivermectin matrix dose-response raw data", "setting": "C. elegans; [7]", "result": "131.9 and 90.0 and 88.0"}, {"measurement": "nemacol-1 x ivermectin matrix dose-response raw data", "setting": "C. elegans; [8]", "result": "106.4 and 120.0 and 114.0"}, {"measurement": "nemacol-1 x ivermectin matrix dose-response raw data", "setting": "C. elegans; ivermectin 0.03 uM (row head 30)", "result": "48.9 and 56.7 and 24.0"}, {"measurement": "nemacol-1 x ivermectin matrix dose-response raw data", "setting": "C. elegans; [9]", "result": "12.8 and 13.3 and 2.0"}, {"measurement": "development average norm L4/As", "setting": "C. elegans unc-17(e245); ivermectin 0.00046875 uM", "result": 91.4}, {"measurement": "viability Avg", "setting": "C. elegans unc-17(e245); ivermectin 0.00046875 uM", "result": 0.92}, {"measurement": "development average norm L4/As", "setting": "C. elegans unc-17(e245); ivermectin 0.0009375 uM", "result": 102.0}, {"measurement": "viability Avg", "setting": "C. elegans unc-17(e245); ivermectin 0.0009375 uM", "result": 1.02}, {"measurement": "development average norm L4/As", "setting": "C. elegans unc-17(e245); ivermectin 0.001875 uM", "result": 96.6}, {"measurement": "viability Avg", "setting": "C. elegans unc-17(e245); ivermectin 0.001875 uM", "result": 0.97}, {"measurement": "development average norm L4/As", "setting": "C. elegans unc-17(e245); ivermectin 0.00375 uM", "result": 94.6}, {"measurement": "viability Avg", "setting": "C. elegans unc-17(e245); ivermectin 0.00375 uM", "result": 0.95}, {"measurement": "development average norm L4/As", "setting": "C. elegans unc-17(e245); ivermectin 0.03 uM", "result": 1.1}, {"measurement": "viability Avg", "setting": "C. elegans unc-17(e245); ivermectin 0.03 uM", "result": 0.03}, {"measurement": "development average norm L4/As", "setting": "C. elegans unc-17(e245); ivermectin 0.06 uM", "result": 0.0}, {"measurement": "viability Avg", "setting": "C. elegans unc-17(e245); ivermectin 0.06 uM", "result": 0.00}, {"measurement": "nemacol-1 x ivermectin matrix dose-response raw data", "setting": "C. elegans unc-17(e245); [7]", "result": "100.0 and 98.2 and 92.0"}, {"measurement": "nemacol-1 x ivermectin matrix dose-response raw data", "setting": "C. elegans unc-17(e245); [8]", "result": "94.6 and 102.2 and 87.1"}, {"measurement": "nemacol-1 x ivermectin matrix dose-response raw data", "setting": "C. elegans unc-17(e245); [9]", "result": 0.0}, {"measurement": "efficacy", "setting": "Haemonchus contortus; [10]", "result": "51.6335 and 46.2111 and 62.2283"}, {"measurement": "efficacy", "setting": "Haemonchus contortus; [11]", "result": "45.9092 and 67.7834 and 50.4898"}, {"measurement": "efficacy", "setting": "Haemonchus contortus; [12]", "result": "64.6293 and 71.8721 and 59.357"}, {"measurement": "efficacy", "setting": "Haemonchus contortus; [13]", "result": "51.0321 and 52.0838 and 33.3542"}, {"measurement": "efficacy", "setting": "Haemonchus contortus; ivermectin 0.078125 µM alone", "result": "36.1803 and 63.8058 and 55.3013"}, {"measurement": "efficacy", "setting": "Haemonchus contortus; ivermectin 0.3125 µM + Nemacol_53 26.4 µM", "result": "79.9766 and 60.2317 and 86.7864"}, {"measurement": "efficacy", "setting": "Haemonchus contortus; ivermectin 0.3125 µM + Nemacol_53 16.8 (unit not given)", "result": "66.3699 and 69.3635 and 88.9679"}, {"measurement": "efficacy", "setting": "Haemonchus contortus; ivermectin 0.3125 µM alone", "result": "59.3102 and 77.8029 and 70.3944"}, {"measurement": "efficacy", "setting": "Haemonchus contortus; ivermectin 1.25 µM + Nemacol_53 26.4 µM", "result": "80.8981 and 87.2376 and 93.0175"}, {"measurement": "efficacy", "setting": "Haemonchus contortus; ivermectin 1.25 µM + Nemacol_53 16.8 (unit not given)", "result": "94.1091 and 79.6798 and 82.4964"}, {"measurement": "efficacy", "setting": "Haemonchus contortus; ivermectin 1.25 µM alone", "result": "87.3643 and 74.9707 and 86.5339"}, {"measurement": "efficacy", "setting": "Haemonchus contortus; ivermectin 5 µM + Nemacol_53 26.4 µM", "result": "82.4313 and 91.8131 and 94.4761"}, {"measurement": "efficacy", "setting": "Haemonchus contortus; [14]", "result": "92.0083 and 91.7168 and 89.2099"}, {"measurement": "efficacy", "setting": "Haemonchus contortus; ivermectin 5 µM alone", "result": "83.6288 and 93.388 and 88.8663"}, {"measurement": "efficacy", "setting": "Haemonchus contortus; ivermectin 20 µM + Nemacol_53 26.4 µM", "result": "86.7838 and 88.1791 and 95.9929"}, {"measurement": "efficacy", "setting": "Haemonchus contortus; ivermectin 20 µM + Nemacol_53 16.8 (unit not given)", "result": "95.5746 and 77.0116 and 89.754"}, {"measurement": "efficacy", "setting": "Haemonchus contortus; ivermectin 20 µM alone", "result": "95.1061 and 89.4651 and 83.7772"}, {"measurement": "raw", "setting": "Haemonchus contortus; ivermectin 0.0012207 µM + Nemacol_53 26.4 µM", "result": "51596.5 and 71143.5 and 66277.5"}, {"measurement": "raw", "setting": "Haemonchus contortus; ivermectin 0.0012207 µM + Nemacol_53 16.8 (unit not given)", "result": "67834.5 and 50419 and 52275.5"}, {"measurement": "raw", "setting": "Haemonchus contortus; ivermectin 0.0012207 µM alone", "result": "49240 and 71073.5 and 61317"}, {"measurement": "raw", "setting": "Haemonchus contortus; ivermectin 0.00488281 µM + Nemacol_53 26.4 µM", "result": "28751.5 and 44196 and 37912.5"}, {"measurement": "raw", "setting": "Haemonchus contortus; ivermectin 0.00488281 µM alone", "result": "43303 and 44672.5 and 57159.5"}, {"measurement": "raw", "setting": "Haemonchus contortus; [10]", "result": "27870 and 30994.5 and 21765"}, {"measurement": "raw", "setting": "Haemonchus contortus; [11]", "result": "31168.5 and 18564 and 28529"}, {"measurement": "raw", "setting": "Haemonchus contortus; ivermectin 0.0195312 µM alone", "result": "32641 and 25525.5 and 49250.5"}, {"measurement": "raw", "setting": "Haemonchus contortus; [12]", "result": "20381.5 and 16208 and 23419.5"}, {"measurement": "raw", "setting": "Haemonchus contortus; [13]", "result": "28216.5 and 27610.5 and 38403"}, {"measurement": "raw", "setting": "Haemonchus contortus; ivermectin 0.078125 µM alone", "result": "36774.5 and 20856 and 25756.5"}, {"measurement": "raw", "setting": "Haemonchus contortus; ivermectin 0.3125 µM alone", "result": "23446.5 and 12790.5 and 17059.5"}, {"measurement": "raw", "setting": "Haemonchus contortus; ivermectin 1.25 µM alone", "result": "7281 and 14422.5 and 7759.5"}, {"measurement": "raw", "setting": "Haemonchus contortus; [14]", "result": "4605 and 4773 and 6217.5"}, {"measurement": "total animals normalized to corresponding controls", "setting": "C. elegans DA1316; ivermectin 0.0009375 uM", "result": 111.56}, {"measurement": "total animals normalized to corresponding controls", "setting": "C. elegans DA1316; ivermectin 0.001875 uM", "result": 102.36}, {"measurement": "total animals normalized to corresponding controls", "setting": "C. elegans DA1316; ivermectin 0.00375 uM", "result": 113.75}, {"measurement": "total animals normalized to corresponding controls", "setting": "C. elegans DA1316; ivermectin 0.03 uM", "result": 108.02}, {"measurement": "total animals normalized to corresponding controls", "setting": "C. elegans DA1316; ivermectin 0.06 uM", "result": 93.85}]}]}
